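Each compound was tested at five concentrations against cells in 96-well plates for 48 hours. At the GI50, growth is halved. Definition used: TGI = concentration required for complete inhibition of growth.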
How the values were obtained:
Assay in all cases: NCI-60 cell line screen, 48 h
[1] = tested on: HOP-92 NSCLC
[2] = tested on: UACC-257 melanoma
[3] = tested on: SF-539 CNS
[4] = tested on: RXF 393 renal
[5] = tested on: EKVX NSCLC
[6] = tested on: U251 CNS
[7] = tested on: SK-MEL-28 melanoma
[8] = tested on: SF-268 CNS
[9] = tested on: HT29 colon
[10] = tested on: A498 renal

With `C=C(CN1CCc2ccccc2C1)c1ccc(C(=O)Nc2ccccc2N)cc1` the GI50 [1] was 3.37 µM, the TGI [1] was 15.8 µM and the GI50 [2] was 1.55 µM. For the same molecule, the TGI [2] was 16.2 µM, the GI50 [3] was 1.3 µM and the TGI [3] was 4.28 µM. The GI50 [4] was 1.37 µM, the TGI [4] was 4.76 µM and the GI50 [5] was 5.68 µM. The TGI [5] was greater than 50 µM, the GI50 [6] was 0.911 µM and the TGI [6] was 4.8 µM. For the same molecule, the GI50 [7] was 0.389 µM, the TGI [7] was 6.53 µM and the GI50 [8] was 1.87 µM. For the same molecule, the TGI [8] was 9.74 µM.
With `COc1ccc(/C=C2/CCc3cc4ccc(OC)cc4[o+]c32)c(O)c1` the GI50 [1] was 11.7 µM, the TGI [1] was 29.1 µM and the GI50 [2] was 15.8 µM. It also gave a TGI [2] of 32 µM, a GI50 [3] of 15.1 µM and a TGI [3] of 31.8 µM. The GI50 [4] was 7.08 µM, the TGI [4] was 24.6 µM and the GI50 [5] was 12.5 µM. It also gave a TGI [5] of 26.8 µM, a GI50 [6] of 2.3 µM and a TGI [6] of 5.57 µM. It also gave a GI50 [7] of 2.3 µM, a TGI [7] of 5.62 µM and a GI50 [9] of 2.12 µM. It also gave a TGI [9] of 4.67 µM, a GI50 [8] of 2.8 µM and a TGI [8] of 9.83 µM.
With `CN(C)Cc1c[nH]c2c(NCCN)c3c(c(NCCN)c12)C(=O)c1ccccc1C3=O` the GI50 [1] was 1.53 µM, the TGI [1] was 5.49 µM and the GI50 [2] was 6.18 µM. The TGI [2] was greater than 23.8 µM, the GI50 [3] was 2.83 µM and the TGI [3] was 7.47 µM. For the same molecule, the GI50 [4] was 6.32 µM, the TGI [4] was 18.1 µM and the GI50 [5] was 2.9 µM. The TGI [5] was 9.36 µM, the GI50 [6] was 0.394 µM and the TGI [6] was 1.87 µM. It also gave a GI50 [7] of 8.8 µM, a TGI [7] of 23.3 µM and a GI50 [9] of 3.65 µM. For the same molecule, the TGI [9] was 26.5 µM, the GI50 [8] was 3.65 µM and the TGI [8] was 14.7 µM.
In the case of `Cc1cc2c(Br)cc(Br)c(O)c2nc1C(=O)c1ccccc1`, the TGI [10] is reported as greater than 100 µM, the TGI [2] is reported as greater than 65.7 µM and the TGI [3] is reported as 97 µM. It also gave a TGI [4] greater than 83.6 µM, a TGI [5] greater than 100 µM and a TGI [6] greater than 71.3 µM. It also gave a TGI [7] greater than 100 µM, a TGI [9] greater than 79.1 µM and a TGI [8] greater than 100 µM.
`O=c1ncccn1C1C=C(CO)C(O)C1O` (stereo unspecified) was tested, and the TGI [10] was greater than 50 µM, the TGI [1] was greater than 50 µM and the TGI [2] was greater than 50 µM. It also gave a TGI [3] greater than 50 µM, a TGI [5] greater than 50 µM and a TGI [6] greater than 50 µM. The TGI [7] was greater than 50 µM, the TGI [9] was greater than 50 µM and the TGI [8] was greater than 50 µM.
`Cn1c([N+](=O)[O-])cnc1/C=C1\Oc2cc(Cl)ccc2C1=O` was tested, and the GI50 [10] was 1.95 µM, the TGI [10] was 9.97 µM and the GI50 [1] was 1.32 µM. It also gave a TGI [1] of 5.14 µM, a GI50 [2] of 0.997 µM and a TGI [2] of 4.99 µM. The GI50 [3] was 1.71 µM, the TGI [3] was 4.81 µM and the GI50 [4] was 0.762 µM. It also gave a TGI [4] of 2.37 µM, a GI50 [6] of 1.53 µM and a TGI [6] of 5.07 µM. For the same molecule, the GI50 [7] was 0.721 µM, the TGI [7] was 3.82 µM and the GI50 [9] was 0.203 µM. The TGI [9] was 0.657 µM, the GI50 [8] was 0.371 µM and the TGI [8] was 2.85 µM.
`CCN(CC)CC(=O)N1CCc2c([nH]c3ccccc23)C1c1cccnc1` (stereo unspecified) showed a TGI [10] greater than 100 µM, a TGI [1] greater than 100 µM and a TGI [2] greater than 100 µM. For the same molecule, the TGI [3] was greater than 100 µM, the TGI [5] was greater than 100 µM and the TGI [6] was greater than 100 µM. It also gave a TGI [7] greater than 100 µM, a TGI [9] greater than 100 µM and a TGI [8] greater than 100 µM.
`CNC(SC)=C1C(=O)OC(C)(C)OC1=O` gave a TGI [10] greater than 100 µM, a TGI [1] greater than 100 µM and a TGI [2] greater than 100 µM. It also gave a TGI [4] greater than 100 µM, a TGI [5] greater than 100 µM and a TGI [6] of 37.7 µM. It also gave a TGI [7] greater than 100 µM, a TGI [9] greater than 100 µM and a TGI [8] greater than 100 µM.

— PubChem BioAssay (NCI)
